Data reported in patent US10711001B2, “Macrocylic ligands with picolinate group(s), complexes thereof and also medical uses thereof” (GUERBET, priority 2015, dated 2020).
Read-outs that look alike come from different tables or passages of the source. Marks after values point to notes of the source that are not given here.

Legend:
[1] = Y^3+, cited from earlier work
[2] = pM = −log[M] calculated from protonation and stability constants; format: physicochemical; details: calculated from the constants with CL = 10 × CM = 10^−5 M at pH 7.4
From the text: The constant pM=-log[M] is used for this purpose. […] The ligand […]04214 has a p(Y) of 17.3, which is higher than that of PCTA (p(Y)=17.0), of […])=16.8) and of […])=16.9).

[3] = cited from earlier work
[4] = Relaxivity of the gadolinium complexes; format: physicochemical; details: gadolinium complex of the ligand, water, 37° C.
Experimental: The relaxivity studies were performed on the gadolinium complexes of the ligands P04218, P04216 and P04213, on Minispec Mq-20 and Minispec Mq-60 machines (Brüker, Karlsruhe, Germany) at 20 MHz (0.47 T) and 60 MHz (1.4 T) in water at 37° C.
For each complex prepared previously, a [Gd] concentration range extending from 0.5 to 5 mM was prepared and the values T1 and T2 of each of these solutions were then measured to determine the relaxivity values r1 and r2 by means of equation 1. For each of the ligands, a trend curve whose correlation coefficient was equal to or very close to 1 was obtained, which made it possible to check equation 1 and to validate the quality of the measurements taken. The curves plotted make it possible to determine the relaxivity value “r” which corresponds to coefficient “a” of the equation for the straight line “ax+b”.

[5] = Complexation kinetics of the ligands with yttrium by UV-visible spectroscopy; format: physicochemical
Experimental: The formation of the yttrium(III) complexes of […] were studied in an aqueous solution of acetate buffer (C=0.150 M) at 25° C. under pseudo-first-order conditions.
The complexation kinetics of the ligands Pc1a2pa sym P04213, Pc1a2pa asym P04214 and Pc2a1pa sym P04218 with yttrium were studied at pH 3.8 and pH 5.5 in acetate buffer medium by UV-visible spectroscopy. Placed at the absorption maximum of the complex, the increase in absorbance intensity is measured every two seconds until the maximum absorbance is reached. The decrease in intensity of the absorbance at the absorbance maximum of the ligand is monitored when the absorption band of the complex is masked by that of the ligand. For this study, the concentration of the ligands Pc1a2pa sym and Pc1a2pa asym is 4×10^−5 M and 8×10^−5 M for the ligand Pc2a1pa sym. At pH 5.5 and 3.8, the ligand Pc1a2pa sym has the fastest complexation kinetics, with total complexation in 30 and 400 seconds, respectively. For the ligands Pc1a2pa asym and Pc2a1pa sym, the complexation is complete in 1100 seconds at pH 3.8 and 100 seconds at pH 5.5.

[6] = Stability constants of the yttrium complexes by potentiometry; format: physicochemical; details: Y^3+
Experimental: (§1) The experiments were performed under an inert atmosphere in aqueous solutions thermostatically maintained at 25.0±0.1° C. The protonation and complexation titrations were performed in a jacketed glass titrations cell using a Metrohm 702 SM Titrino automatic burette connected to a Metrohm 6.0233.100 combined glass electrode. The titrations were controlled automatically by software after selection of the appropriate parameters avoiding monitoring during long measurements.
(§2) The ligand solutions were prepared at approximately 2.0×10^−3 M and the Cu^2+, Pb^2+ and y^3+ solutions at approximately 0.04 M from analytical-grade chloride salts and standardized by complexometric titration with H4edta (ethylenediaminetetraacetic acid)^1. The solution to be titrated contains approximately 0.05 mmol of ligand in a volume of 30.00 mL, the ionic strength of which was maintained at 0.10 M using KNO3 as electrolyte. 1.2 equivalents of metal cation (Cu^2+ or Pb^2+) were added to the ligand (0.05 mmol) during the standardization titrations of the ligand solution.
0.9 equivalent of metal cation (Y^3+) was added to the ligand during the complexation titration methods.
(§3) The potentiometric data were refined with the Hyperquad software^2 and the speciation diagrams were plotted using the HySS software^3.
(§4) The overall equilibrium constants βiH and βMmHhLl are defined by βMmHhLl=[MmHhLl]/[M]m[H]h[L]l, (βiH=[HhLl]/[H]h[L]l and βMH−1L=βML(OH)×Ke). The differences, in log units, between the protonation (or hydrolysis) values and the non-protonation constants give the intermediate reaction constants (log K) (with KMmHhLl=[MmHhLl]/[MmHh-1Ll][H]). The errors indicated are the standard deviations calculated by the adjustment program from all of the experimental data for each system.
The thermodynamic protonation and stability constants of the complexes were determined by potentiometry at 25° C. with control of the ionic strength (I=0.1 M KNO3). Refinement of the titration curves with the HyperQuad software makes it possible to determine the overall constants (log β), from which the partial constants (log K) are calculated.
The stability constants of the ligands Pc1a2pa sym P04213, Pc1a2pa asym P04214 et Pc2a1pa sym P04218 and P04221 with yttrium were determined by direct potentiometric titration. The log KYL constant values for the ligands Pc1a2pa sym, Pc1a2pa asym and Pc2a1pa sym are, respectively, 19.78, 19.49 and 19.28, and the log KYLH^−1 constant values are 11.84, 11.79 and 10.60.

[7] = Protonation constants of the ligands by potentiometry; format: physicochemical; details: I = 0.1 KNO3, 25° C.
Experimental: as §1
The titrant is an approximately 0.1 M KOH solution prepared from an analytical-grade commercial vial and its exact concentration is obtained by applying the Gran method by titrating with a standard HNO3 solution.
as §2
The electromotive force of the solution was measured after calibration of the electrode by titration of a standard […] HNO3 solution. The [H^+] of the solutions was determined by measuring the electromotive force of the cell, E=E^o′+Q log [H^+]+Ej. The term “pH” is defined by −log[H^+]. E^o′ and Q are determined by the acidic region of the calibration curves. The liquid junction potential, Ej, is negligible under the experimental conditions used. The value of Ke=[H^+][OH^−] is 10^−13.78.
as §3, §4
Four protonation constants were determined for the ligands Pc1a2pa sym P04213, Pc1a2pa asym P04214, Pc2a1pa sym P04216 and Pc3pa P04221. These values are coherent with those determined for PCTMB (phosphonic acid, P,P′,P″-[3,6,9,15-tetraazabicyclo[9.3.1]pentadeca-1(15),11,13-triene-3,6,9-triyltris(methylene)]tris-, P,P′,P″-tributyl ester) and also with those described in the literature especially for PCTA (3,6,9,15-tetraazabicyclo[9.3.1]pentadeca-1(15),11,13-triene-3,6,9-triacetic acid), EDTA (ethylenediaminetetraacetic acid) and DOTA (1,4,7,10-tetraazacyclododecane-1,4,7,10-tetraacetic acid).

[8] = direct potentiometric titration, 25° C., I=0.1 M KNO3
[9] = determined by competition with EDTA, 0.1M KNO3

## O=C(O)CN1CCN(CC(=O)O)CCN(CC(=O)O)CCN(CC(=O)O)CC1 [DOTA, 1,4,7,10-tetraazacyclododecane-1,4,7,10-tetraacetic acid]
[1]; Ref 7, 0.1M NMe4NO3
  log KMHiL [ML]/[M][L]: 24.9 ^h
[2]
  pY (pM = −log[M]): 18.8
[3]; I = 0.1 Me4NNO3
  log Ki^H [H2L]/[HL][H]: 9.76
  log Ki^H [H3L]/[H2L][H]: 4.56
  log Ki^H [H4L]/[H3L][H]: 4.09

## O=C(O)CN(CCN(CC(=O)O)CC(=O)O)CC(=O)O [EDTA, ethylenediaminetetraacetic acid]
[1]; Ref 5, 0.1M NMe4Cl
  log KMHiL [ML]/[M][L]: 18.5 ^d
[2]
  pY (pM = −log[M]): 16.6
[3]; I = 0.1 KNO3
  log Ki^H [H2L]/[HL][H]: 6.16
  log Ki^H [H3L]/[H2L][H]: 2.71
  log Ki^H [H4L]/[H3L][H]: 2.0
  log Ki^H [HL]/[L][H]: 10.22

## O=C(O)CN1CCN(Cc2cccc(C(=O)O)n2)Cc2cccc(n2)CN(Cc2cccc(C(=O)O)n2)CC1 [Ligand P04213]
[4]; 20 MHz (0.47 T)
  Relaxivity r1: r1 = 1.9 mmol^−1s^−1
[4]; 60 MHz (1.4 T)
  Relaxivity r1: r1 = 1.6 mmol^−1s^−1
[5]; pH 3.8, acetate buffer
  time to total complexation with yttrium: 400 s
[5]; pH 5.5, acetate buffer
  time to total complexation with yttrium: 30 s
[2]
  pY (pM = −log[M]): 16.8
[6]; [8]
  log KMHiL [ML]/[MLOH][H] (log KYLH^−1): 11.84
  log KMHiL [ML]/[M][L] (log KYL): 19.78
[7]
  log Ki^H [H2L]/[HL][H]: 5.58
  log Ki^H [H3L]/[H2L][H]: 4.23
  log Ki^H [H4L]/[H3L][H]: 3.01
  log Ki^H [HL]/[L][H]: 11.30

## O=C(O)CN1CCN(Cc2cccc(C(=O)O)n2)CCN(Cc2cccc(C(=O)O)n2)Cc2cccc(n2)C1 [Ligand P04214]
[5]; pH 3.8, acetate buffer
  time to total complexation with yttrium: 1100 s
[5]; pH 5.5, acetate buffer
  time to total complexation with yttrium: 100 s
[2]
  pY (pM = −log[M]): 17.3
[6]; [8]
  log KMHiL [ML]/[MLOH][H] (log KYLH^−1): 11.79
  log KMHiL [ML]/[M][L] (log KYL): 19.49
[7]
  log Ki^H [H2L]/[HL][H]: 6.73
  log Ki^H [H3L]/[H2L][H]: 3.86
  log Ki^H [H4L]/[H3L][H]: 2.98
  log Ki^H [HL]/[L][H]: 10.50

## O=C(O)CN1CCN(CC(=O)O)Cc2cccc(n2)CN(Cc2cccc(C(=O)O)n2)CC1 [Ligand P04216]
[4]; 20 MHz (0.47 T)
  Relaxivity r1: r1 = 3.7 mmol^−1s^−1
[4]; 60 MHz (1.4 T)
  Relaxivity r1: r1 = 3.2 mmol^−1s^−1

## O=C(O)CN1CCN(Cc2cccc(C(=O)O)n2)CCN(CC(=O)O)Cc2cccc(n2)C1 [Ligand P04218]
[4]; 20 MHz (0.47 T)
  Relaxivity r1: r1 = 3.9 mmol^−1s^−1
[4]; 60 MHz (1.4 T)
  Relaxivity r1: r1 = 3.2 mmol^−1s^−1
[5]; pH 3.8, acetate buffer
  time to total complexation with yttrium: 1100 s
[5]; pH 5.5, acetate buffer
  time to total complexation with yttrium: 100 s
[2]
  pY (pM = −log[M]): 16.9
[6]; [8]
  log KMHiL [ML]/[MLOH][H] (log KYLH^−1): 10.60
  log KMHiL [ML]/[M][L] (log KYL): 19.28
[7]
  log Ki^H [H2L]/[HL][H]: 7.38
  log Ki^H [H3L]/[H2L][H]: 3.95
  log Ki^H [H4L]/[H3L][H]: 2.15
  log Ki^H [HL]/[L][H]: 10.43

## O=C(O)c1cccc(CN2CCN(Cc3cccc(C(=O)O)n3)Cc3cccc(n3)CN(Cc3cccc(C(=O)O)n3)CC2)n1 [Ligand P04221]
[7]
  log Ki^H [H2L]/[HL][H]: 5.95
  log Ki^H [H3L]/[H2L][H]: 3.82
  log Ki^H [H4L]/[H3L][H]: 2.98
  log Ki^H [HL]/[L][H]: 10.03

## O=C([O-])c1cccc(CN2CCN(Cc3cccc(C(=O)[O-])n3)Cc3cccc(n3)CN(Cc3cccc(C(=O)[O-])n3)CC2)n1.[Y+3] [Ligand P04222]
[2]
  pY (pM = −log[M]): 14.7
[6]; [8]
  log KMHiL [MHL]/[ML][H]: 3.11
  log KMHiL [ML]/[MLOH][H] (log KYLH^−1): 11.02
  log KMHiL [ML]/[M][L] (log KYL): 16.42

## O=C(O)CN1CCN(CC(=O)O)Cc2cccc(n2)CN(CC(=O)O)CC1 [PCTA, 3,6,9,15-tetraazabicyclo[9.3.1]pentadeca-1(15),11,13-triene-3,6,9-triacetic acid]
[1]; Ref 3, 1.0M KCl
  log KMHiL [MHL]/[ML][H]: 1.81
  log KMHiL [ML]/[MLOH][H]: 11.10
  log KMHiL [ML]/[M][L]: 20.28
[2]
  pY (pM = −log[M]): 17.0
[3]; I = 1.0 KCl
  log Ki^H [H2L]/[HL][H]: 7.35
  log Ki^H [H3L]/[H2L][H]: 3.83
  log Ki^H [H4L]/[H3L][H]: 2.12
  log Ki^H [H5L]/[H4L][H]: 1.29
  log Ki^H [HL]/[L][H]: 11.36

## CCCCOP(=O)(O)CN1CCN(CP(=O)(O)OCCCC)Cc2cccc(n2)CN(CP(=O)(O)OCCCC)CC1 [PCTMB, phosphonic acid, P,P′,P″-[3,6,9,15-tetraazabicyclo[9.3.1]pentadeca-1(15),11,13-triene-3,6,9-triyltris(methylene)]tris-, P,P′,P″-tributyl ester, reference compound]
[2]
  pY (pM = −log[M]): 16.7
[6]; [9]
  log KMHiL [MHL]/[ML][H]: 3.45
  log KMHiL [ML]/[MLOH][H]: 9.10
  log KMHiL [ML]/[M][L]: 19.49
[7]
  log Ki^H [H2L]/[HL][H]: 5.28
  log Ki^H [H3L]/[H2L][H]: 1.72
  log Ki^H [HL]/[L][H]: 11.16
